Experiments:
bedstraw = assay: Test B pre/postemergence bedstraw; format: in vivo, Galium aparine
In short: (§1)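 Test chemicals in a non-phytotoxic solvent mixture with surfactant were sprayed preemergence onto planted seeds and postemergence onto plants 2 to 18 cm tall (1- to 4-leaf stage). After twelve to sixteen days in a greenhouse, injury was visually rated against untreated controls from 0 (no effect) to 10 (complete control).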

rice = assay: Test B flood test rice; format: in vivo, Oryza sativa
In short: (§2)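 Read-out is a visual response score from 0 (no effect) to 10 (complete control), assigned by comparison with untreated controls. Treatment was applied at the 2-leaf stage, and plants stayed in the greenhouse for twelve to sixteen days before scoring.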

Italian ryegrass = assay: Test E Italian ryegrass; format: in vivo, Lolium multiflorum; details: Preemergence
wild oat = assay: Test E wild oat; format: in vivo, Avena fatua; details: Preemergence
winter wheat [1] = assay: Test E winter wheat; format: in vivo, Triticum aestivum; details: Postemergence
In short: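 Greenhouse test: for postemergence, foliar application at 1- to 4-leaf stage; compound in non-phytotoxic solvent with surfactant. Rating is visual, relative to untreated controls, about 21 to 28 days after treatment.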

blackgrass = assay: Test E blackgrass; format: in vivo, Alopecurus myosuroides; details: Preemergence
wheat = assay: Test B pre/postemergence wheat; format: in vivo, Triticum aestivum
In short: as §1

winter wheat [2] = assay: Test E winter wheat; format: in vivo, Triticum aestivum; details: Preemergence
winter barley = assay: Test E winter barley; format: in vivo, Hordeum vulgare; details: Preemergence
green foxtail = assay: Test E green foxtail; format: in vivo, Setaria viridis; details: Preemergence
duck salad = assay: Test B flood test duck salad; format: in vivo, Heteranthera limosa
In short: as §2

[3] = Postemergence, Rate 31 g/ha, visual rating, scale 0 to 10 (0 no effect, 10 complete control)
[4] = Preemergence, Rate 31 g/ha, visual rating, scale 0 to 10 (0 no effect, 10 complete control)
[5] = Preemergence, Rate 62 g/ha, scale of 0 to 10 where 0 is no effect and 10 is complete control
[6] = Rate 16 g/ha, Postemergence, scale 0 to 10, 0 no effect, 10 complete control
[7] = Rate 16 g/ha, Preemergence, scale 0 to 10, 0 no effect, 10 complete control
[8] = Rate 62 g/ha, Postemergence, scale 0 to 10 (0 no effect, 10 complete control)
[9] = Rate 125 g/ha, Postemergence, scale of 0 to 10 where 0 is no effect and 10 is complete control
[10] = Rate 125 g/ha, Preemergence, scale of 0 to 10 where 0 is no effect and 10 is complete control
[11] = Rate 16 g/ha, head printed Pre-emergence (flood test species), scale 0 to 10, 0 no effect, 10 complete control
[12] = Rate 31 g/ha, Pre-emergence section (flood test species), scale 0 to 10
[13] = Rate 62 g/ha, headed Pre-emergence (flood test species), scale 0 to 10 (0 no effect, 10 complete control)
[14] = Rate 125 g/ha, Pre-emergence, flood test species, scale 0 to 10 where 0 is no effect and 10 is complete control
[15] = Rate 250 g/ha, Pre-emergence, flood-test species, scale 0 to 10, 0 is no effect, 10 is complete control
[16] = Rate 500 g/ha, Pre-emergence, flood test species, scale 0 to 10 (0 no effect, 10 complete control)
[17] = Rate 500 g/ha, 0 to 100 scale (0 no effect, 100 complete control)
[18] = Rate 1000 g/ha, 0 to 100 scale, 0 no effect, 100 complete control
[19] = Rate 250 g/ha, 0 to 100 scale where 0 is no effect and 100 is complete control
[20] = Rate 500 g/ha, 0 to 100 scale, 0 is no effect, 100 is complete control
[21] = Preemergence, Rate 250 g/ha, scale of 0 to 10 where 0 is no effect and 10 is complete control
[22] = Preemergence, Rate 500 g/ha, scale of 0 to 10 where 0 is no effect and 10 is complete control
[23] = Rate 250 g/ha, Postemergence, scale of 0 to 10 where 0 is no effect and 10 is complete control
[24] = Rate 125 g/ha, 0 to 100 scale (0 no effect, 100 complete control)
[25] = Rate 125 g/ha, 0 to 100 scale, 0 is no effect, 100 is complete control

## CCCCCn1c(=O)on(C(=O)N(c2ccc(F)cc2)C(C)C)c1=O [Compound 290]
bedstraw; [3]
  Bedstraw plant response rating: 0
bedstraw; [4]
  Bedstraw plant response rating: 0
bedstraw; [5]
  Bedstraw plant response rating: 0
bedstraw; [6]
  Bedstraw plant response rating: 0
bedstraw; [7]
  Bedstraw plant response rating: 0
bedstraw; [8]
  Bedstraw plant response rating: 0
bedstraw; [9]
  Bedstraw plant response rating: 0
bedstraw; [10]
  Bedstraw plant response rating: 3
rice; [11]
  Rice plant response rating: 0
rice; [12]
  Rice plant response rating: 0
rice; [13]
  Rice plant response rating: 0
rice; [14]
  Rice plant response rating: 0
rice; [15]
  Rice plant response rating: 0
rice; [16]
  Rice plant response rating: 0
Italian ryegrass; Rate 250 g/ha
  I. Ryegrass plant response rating (0 to 100 scale): 60
Italian ryegrass; [17]
  Plant response rating, I. Ryegrass: 70
Italian ryegrass; [18]
  Plant response rating, I. Ryegrass: 90
Wild oat; Rate 250 g/ha
  Wild oat plant response rating (0 to 100 scale): 60
Wild oat; [17]
  Plant response rating, Wild oat: 70
Wild oat; [18]
  Plant response rating, Wild oat: 70
Winter wheat [1]; Rate 1000 g/ha, 0 to 100 scale where 0 is no effect and 100 is complete control
  Plant response rating, Wheat (winter): 70
Winter wheat [1]; [19]
  Wheat (winter) plant response rating: 50
Winter wheat [1]; [20]
  Plant response rating, Wheat (winter): 60
blackgrass; Rate 250 g/ha
  Blackgrass plant response rating (0 to 100 scale): 60
blackgrass; [17]
  Plant response rating, Blackgrass: 70
blackgrass; [18]
  Plant response rating, Blackgrass: 95
wheat; [3]
  Wheat plant response rating: 0
wheat; [4]
  Wheat plant response rating: 0
wheat; [5]
  Wheat plant response rating: 0
wheat; [6]
  Wheat plant response rating: 0
wheat; [7]
  Wheat plant response rating: 0
wheat; [8]
  Wheat plant response rating: 0
wheat; [9]
  Wheat plant response rating: 0
wheat; [10]
  Wheat plant response rating: 0
Winter wheat [2]; Rate 250 g/ha
  Wheat (winter) plant response rating (0 to 100 scale): 10
Winter wheat [2]; [17]
  Plant response rating, Wheat (winter): 30
Winter wheat [2]; [18]
  Plant response rating, Wheat (winter): 50
Winter barley; Rate 250 g/ha
  Barley (winter) plant response rating (0 to 100 scale): 55
Winter barley; [17]
  Plant response rating, Barley (winter): 60
Winter barley; [18]
  Plant response rating, Barley (winter): 70
Green foxtail; Rate 250 g/ha
  Green foxtail plant response rating (0 to 100 scale): 65
Green foxtail; [17]
  Plant response rating, Green foxtail: 70
Green foxtail; [18]
  Plant response rating, Green foxtail: 85
Duck salad; [11]
  Ducksalad plant response rating: 0
Duck salad; [12]
  Ducksalad plant response rating: 0
Duck salad; [13]
  Ducksalad plant response rating: 0
Duck salad; [14]
  Ducksalad plant response rating: 0
Duck salad; [15]
  Ducksalad plant response rating: 0
Duck salad; [16]
  Ducksalad plant response rating: 0

## COCn1c(=O)on(C(=O)N(c2ccc(F)cc2)C(C)C)c1=O [Compound 293]
bedstraw; [5]
  Bedstraw plant response rating: 0
bedstraw; [21]
  Bedstraw plant response rating: 0
bedstraw; [22]
  Plant response rating, Bedstraw: 0
bedstraw; [8]
  Bedstraw plant response rating: 0
bedstraw; [9]
  Bedstraw plant response rating: 2
bedstraw; [10]
  Bedstraw plant response rating: 0
bedstraw; [23]
  Plant response rating, Bedstraw: 3
bedstraw; Rate 500 g/ha, Postemergence, scale 0 to 10, 0 no effect, 10 complete control
  Bedstraw plant response rating: 9
rice; [13]
  Rice plant response rating: 0
rice; [14]
  Rice plant response rating: 0
rice; [15]
  Rice plant response rating: 3
rice; [16]
  Rice plant response rating: 5
Italian ryegrass; [24]
  Plant response rating, I. Ryegrass: 30
Italian ryegrass; Rate 250 g/ha
  I. Ryegrass plant response rating (0 to 100 scale): 50
Italian ryegrass; [17]
  Plant response rating, I. Ryegrass: 50
Wild oat; [24]
  Plant response rating, Wild oat: 0
Wild oat; Rate 250 g/ha
  Wild oat plant response rating (0 to 100 scale): 10
Wild oat; [17]
  Plant response rating, Wild oat: 50
Winter wheat [1]; [25]
  Plant response rating, Wheat (winter): 50
Winter wheat [1]; [19]
  Wheat (winter) plant response rating: 30
Winter wheat [1]; [20]
  Plant response rating, Wheat (winter): 50
blackgrass; [24]
  Plant response rating, Blackgrass: 40
blackgrass; [17]
  Plant response rating, Blackgrass: 50
wheat; [5]
  Wheat plant response rating: 2
wheat; [21]
  Wheat plant response rating: 8
wheat; [22]
  Plant response rating, Wheat: 9
wheat; [8]
  Wheat plant response rating: 2
wheat; [9]
  Wheat plant response rating: 6
wheat; [10]
  Wheat plant response rating: 7
wheat; [23]
  Plant response rating, Wheat: 7
Winter wheat [2]; [24]
  Plant response rating, Wheat (winter): 40
Winter wheat [2]; Rate 250 g/ha
  Wheat (winter) plant response rating (0 to 100 scale): 50
Winter wheat [2]; [17]
  Plant response rating, Wheat (winter): 55
Winter barley; [24]
  Plant response rating, Barley (winter): 40
Winter barley; Rate 250 g/ha
  Barley (winter) plant response rating (0 to 100 scale): 40
Winter barley; [17]
  Plant response rating, Barley (winter): 50
Green foxtail; [24]
  Plant response rating, Green foxtail: 55
Green foxtail; Rate 250 g/ha
  Green foxtail plant response rating (0 to 100 scale): 70
Green foxtail; [17]
  Plant response rating, Green foxtail: 60
Duck salad; [13]
  Ducksalad plant response rating: 0
Duck salad; [14]
  Ducksalad plant response rating: 0
Duck salad; [15]
  Ducksalad plant response rating: 0
Duck salad; [16]
  Ducksalad plant response rating: 0

## CCOCn1c(=O)on(C(=O)N(c2ccc(F)cc2)C(C)C)c1=O [Compound 295]
bedstraw; [3]
  Bedstraw plant response rating: 0
bedstraw; [4]
  Bedstraw plant response rating: 0
bedstraw; [5]
  Bedstraw plant response rating: 0
bedstraw; [21]
  Bedstraw plant response rating: 0
bedstraw; [8]
  Bedstraw plant response rating: 0
bedstraw; [9]
  Bedstraw plant response rating: 4
bedstraw; [10]
  Bedstraw plant response rating: 0
bedstraw; [23]
  Plant response rating, Bedstraw: 4
rice; [12]
  Rice plant response rating: 0
rice; [13]
  Rice plant response rating: 0
rice; [14]
  Rice plant response rating: 0
rice; [15]
  Rice plant response rating: 0
Italian ryegrass; [24]
  Plant response rating, I. Ryegrass: 40
Italian ryegrass; Rate 250 g/ha
  I. Ryegrass plant response rating (0 to 100 scale): 50
Wild oat; [24]
  Plant response rating, Wild oat: 0
Wild oat; Rate 250 g/ha
  Wild oat plant response rating (0 to 100 scale): 10
Winter wheat [1]; [25]
  Plant response rating, Wheat (winter): 30
Winter wheat [1]; [19]
  Wheat (winter) plant response rating: 50
blackgrass; [24]
  Plant response rating, Blackgrass: 0
blackgrass; Rate 250 g/ha
  Blackgrass plant response rating (0 to 100 scale): 10
wheat; [3]
  Wheat plant response rating: 0
wheat; [4]
  Wheat plant response rating: 0
wheat; [5]
  Wheat plant response rating: 0
wheat; [21]
  Wheat plant response rating: 6
wheat; [8]
  Wheat plant response rating: 0
wheat; [9]
  Wheat plant response rating: 0
wheat; [10]
  Wheat plant response rating: 3
wheat; [23]
  Plant response rating, Wheat: 3
Winter wheat [2]; [24]
  Plant response rating, Wheat (winter): 40
Winter wheat [2]; Rate 250 g/ha
  Wheat (winter) plant response rating (0 to 100 scale): 60
Winter barley; [24]
  Plant response rating, Barley (winter): 20
Winter barley; Rate 250 g/ha
  Barley (winter) plant response rating (0 to 100 scale): 30
Green foxtail; [24]
  Plant response rating, Green foxtail: 50
Green foxtail; Rate 250 g/ha
  Green foxtail plant response rating (0 to 100 scale): 100
Duck salad; [12]
  Ducksalad plant response rating: 0
Duck salad; [13]
  Ducksalad plant response rating: 0
Duck salad; [14]
  Ducksalad plant response rating: 0
Duck salad; [15]
  Ducksalad plant response rating: 0

## CSCCn1c(=O)on(C(=O)N(c2ccc(F)cc2)C(C)C)c1=O [Compound 314]
bedstraw; [5]
  Bedstraw plant response rating: 0
bedstraw; Preemergence, Rate 125 g/ha
  Bedstraw plant response rating (0 to 10 scale): 0
bedstraw; [21]
  Bedstraw plant response rating: 0
bedstraw; [22]
  Bedstraw plant response rating: 3
bedstraw; [8]
  Bedstraw plant response rating: 2
bedstraw; [9]
  Bedstraw plant response rating: 4
rice; [13]
  Rice plant response rating: 0
rice; [14]
  Rice plant response rating: 0
rice; [15]
  Rice plant response rating: 0
rice; [16]
  Rice plant response rating: 0
Italian ryegrass; [24]
  Plant response rating, I. Ryegrass: 50
Italian ryegrass; Rate 250 g/ha, 0 to 100 scale
  Plant response rating, I. Ryegrass: 55
Wild oat; [24]
  Plant response rating, Wild oat: 70
Wild oat; Rate 250 g/ha, 0 to 100 scale
  Plant response rating, Wild oat: 70
Winter wheat [1]; [25]
  Plant response rating, Wheat (winter): 65
Winter wheat [1]; Rate 250 g/ha, 0 to 100 scale, 0 is no effect, 100 is complete control
  Plant response rating, Wheat (winter): 70
blackgrass; [24]
  Plant response rating, Blackgrass: 40
blackgrass; Rate 250 g/ha, 0 to 100 scale
  Plant response rating, Blackgrass: 50
wheat; [5]
  Wheat plant response rating: 0
wheat; Preemergence, Rate 125 g/ha
  Wheat plant response rating (0 to 10 scale): 0
wheat; [21]
  Wheat plant response rating: 0
wheat; [22]
  Wheat plant response rating: 3
wheat; [8]
  Wheat plant response rating: 0
wheat; [9]
  Wheat plant response rating: 0
wheat; [23]
  Plant response rating, Wheat: 3
Winter wheat [2]; [24]
  Plant response rating, Wheat (winter): 65
Winter wheat [2]; Rate 250 g/ha, 0 to 100 scale
  Plant response rating, Wheat (winter): 70
Winter barley; [24]
  Plant response rating, Barley (winter): 50
Winter barley; Rate 250 g/ha, 0 to 100 scale, 0 no effect, 100 complete control
  Plant response rating, Barley (winter): 60
Green foxtail; [24]
  Plant response rating, Green foxtail: 60
Green foxtail; Rate 250 g/ha, 0 to 100 scale
  Plant response rating, Green foxtail: 85
Duck salad; [13]
  Ducksalad plant response rating: 0
Duck salad; [14]
  Ducksalad plant response rating: 0
Duck salad; [15]
  Ducksalad plant response rating: 0
Duck salad; [16]
  Ducksalad plant response rating: 0

Reference: US6737383B1, “Herbicidal oxadiazolidines” (priority 1999, dated 2004)
